According to patent publication US6376497B1, “Antifungal azole derivatives having a fluorinated vinyl group and process for preparing same” (Korea Research Institute of Chemical Technology, priority 1999, dated 2002):
Values after ≈ are worked out from the molar mass of the structure shown.

Key:
Experiment in all cases: In vitro antifungal activity, microbroth dilution MIC
Format in all cases: cell-based
[1] = test system: Candida albicans A. 10231; conditions: 4 to 48 hours; for Minimal inhibitory concentration(MIC), C. albicans A. 10231: RPMI-1640, 35° C., no growth observed; for Minimal inhibitory concentration (MIC): C. albicans A. 10231, RPMI-1640, 35° C.
Procedure, shortened: (§1)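 Broth microdilution adapted from NCCLS M27, in RPMI-1640 with 0.165 M MOPS, pH 7.0. Yeast or mould inoculum at 2×10^3 CFU/ml was mixed 1:1 with DMSO-derived compound solutions (200 to 0.10 μg/ml before mixing) and incubated at 35 °C for 4 to 48 h. MIC was the concentration showing no growth.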

Candida krusei K. 11655 = conditions: 4 to 48 hours; for Minimal inhibitory concentration(MIC), C. krusei K. 11655: RPMI-1640, 35° C., no growth observed; for Minimal inhibitory concentration (MIC): C. krusei K. 11655, RPMI-1640, 35° C.
Procedure, shortened: as §1

[2] = test system: Cryptococcus neoformans A. 34144; conditions: 4 to 48 hours; for Minimal inhibitory concentration(MIC), Cry. neoformans A. 34144: RPMI-1640, 35° C., no growth observed; for Minimal inhibitory concentration (MIC): Cry. neoformans A. 34144, RPMI-1640, 35° C.
Procedure, shortened: as §1

[3] = test system: Aspergillus furnigatus B. 19119; conditions: 4 to 48 hours; for Minimal inhibitory concentration(MIC), A furnigatus B. 19119: RPMI-1640, 35° C., no growth observed; for Minimal inhibitory concentration (MIC): A furnigatus B. 19119, RPMI-1640, 35° C.
Procedure, shortened: as §1

[4] = test system: Trichophyton mentagrophytes A. 9129; conditions: 4 to 48 hours; for Minimal inhibitory concentration(MIC), T. mentagrophytes A. 9129: RPMI-1640, 35° C., no growth observed; for Minimal inhibitory concentration (MIC): T. mentagrophytes A. 9129, RPMI-1640, 35° C.
Procedure, shortened: as §1

Candida albicans C1-2 = conditions: 4 to 48 hours; for Minimal inhibitory concentration(MIC), C. albicans C1-2: RPMI-1640, 35° C., no growth observed; for Minimal inhibitory concentration (MIC): C. albicans C1-2, RPMI-1640, 35° C.
Procedure, shortened: as §1

[5] = test system: Torulopsis glabrata B. 16205; conditions: 4 to 48 hours; for Minimal inhibitory concentration(MIC), T. glabrata B. 16205: RPMI-1640, 35° C., no growth observed; for Minimal inhibitory concentration (MIC): T. glabrata B. 16205, RPMI-1640, 35° C.
Procedure, shortened: as §1

[6] = test system: Trichophyton mentagrophytes B. 32663; conditions: 4 to 48 hours; for Minimal inhibitory concentration(MIC), T. mentagrophytes B. 32663: RPMI-1640, 35° C., no growth observed; for Minimal inhibitory concentration (MIC): T. mentagrophytes B. 32663, RPMI-1640, 35° C.
Procedure, shortened: as §1

[7] = test system: Cryptococcus neoformans B. 42419; conditions: 4 to 48 hours; for Minimal inhibitory concentration(MIC), Cry. neoformans B. 42419: RPMI-1640, 35° C., no growth observed; for Minimal inhibitory concentration (MIC): Cry. neoformans B. 42419, RPMI-1640, 35° C.
Procedure, shortened: as §1

[8] = test system: Candida pseudotropicalis K. 11658; conditions: 4 to 48 hours; for Minimal inhibitory concentration(MIC), C. pseudotropicalis K. 11658: RPMI-1640, 35° C., no growth observed; for Minimal inhibitory concentration (MIC): C. pseudotropicalis K. 11658, RPMI-1640, 35° C.
Procedure, shortened: as §1

[9] = test system: Candida albicans IFO. 1385; conditions: 4 to 48 hours; for Minimal inhibitory concentration(MIC), C. albicans IFO. 1385: RPMI-1640, 35° C., no growth observed; for Minimal inhibitory concentration (MIC): C. albicans IFO. 1385, RPMI-1640, 35° C.
Procedure, shortened: as §1

[10] = test system: Cryptococcus neoformans IFM. 40092; conditions: 4 to 48 hours; for Minimal inhibitory concentration(MIC), Cry. neoformans IFM. 40092: RPMI-1640, 35° C., no growth observed; for Minimal inhibitory concentration (MIC): Cry. neoformans IFM. 40092, RPMI-1640, 35° C.
Procedure, shortened: as §1

[11] = test system: Candida parapsitosis A. 7330; conditions: 4 to 48 hours; for Minimal inhibitory concentration(MIC), C. parapsitosis A. 7330: RPMI-1640, 35° C., no growth observed; for Minimal inhibitory concentration (MIC): C. parapsitosis A. 7330, RPMI-1640, 35° C.
Procedure, shortened: as §1

[12] = test system: Aspergillus niger A. 16404; conditions: 4 to 48 hours; for Minimal inhibitory concentration(MIC), A. niger A. 16404: RPMI-1640, 35° C., no growth observed; for Minimal inhibitory concentration (MIC): A. niger A. 16404, RPMI-1640, 35° C.
Procedure, shortened: as §1

[13] = test system: Candida tropicalis A. 13803; conditions: 4 to 48 hours; for Minimal inhibitory concentration(MIC), C. tropicalis A. 13803: RPMI-1640, 35° C., no growth observed; for Minimal inhibitory concentration (MIC): C. tropicalis A. 13803, RPMI-1640, 35° C.
Procedure, shortened: as §1

SMILES	Minimal inhibitory concentration(MIC), C. krusei K. 11655 (Candida krusei K. 11655) [µg/mL]	Minimal inhibitory concentration(MIC), Cry. neoformans A. 34144 [2] [µg/mL]	Minimal inhibitory concentration(MIC), A furnigatus B. 19119 [3] [µg/mL]	Minimal inhibitory concentration(MIC), T. mentagrophytes A. 9129 [4] [µg/mL]	Minimal inhibitory concentration(MIC), T. glabrata B. 16205 [5] [µg/mL]	Minimal inhibitory concentration (MIC) [1] [µg/mL]	Minimal inhibitory concentration (MIC) (Candida krusei K. 11655) [µg/mL]	Minimal inhibitory concentration (MIC) [2] [µg/mL]	Minimal inhibitory concentration (MIC) [3] [µg/mL]	Minimal inhibitory concentration (MIC) [4] [µg/mL]	Minimal inhibitory concentration (MIC) (Candida albicans C1-2) [µg/mL]	Minimal inhibitory concentration (MIC) [5] [µg/mL]	Minimal inhibitory concentration (MIC) [6] [µg/mL]	Minimal inhibitory concentration (MIC) [7] [µg/mL]	Minimal inhibitory concentration (MIC) [8] [µg/mL]	Minimal inhibitory concentration (MIC) [9] [µg/mL]	Minimal inhibitory concentration (MIC) [10]	Minimal inhibitory concentration (MIC) [11] [µg/mL]	Minimal inhibitory concentration (MIC) [12] [µg/mL]	Minimal inhibitory concentration (MIC) [13] [µg/mL]	other results
FC(Oc1ccc(OCC2COC(Cn3ccnc3)(c3ccc(Cl)cc3Cl)O2)cc1)=C(c1ccc(C(F)(F)F)cc1)C(F)(F)F (mixture of isomers) [Ex. 97]	>100	3.13	>100	25.0	100																Minimal inhibitory concentration(MIC), C. albicans A. 10231 [1]: >100 µg/mL; Minimal inhibitory concentration(MIC), C. albicans C1-2 (Candida albicans C1-2): >100 µg/mL; Minimal inhibitory concentration(MIC), T. mentagrophytes B. 32663 [6]: 12.5 µg/mL; Minimal inhibitory concentration(MIC), Cry. neoformans B. 42419 [7]: 3.13 µg/mL; Minimal inhibitory concentration(MIC), C. pseudotropicalis K. 11658 [8]: >100 µg/mL; Minimal inhibitory concentration(MIC), C. albicans IFO. 1385 [9]: 3.13 µg/mL; Minimal inhibitory concentration(MIC), Cry. neoformans IFM. 40092 [10]: 0.78 µg/mL; Minimal inhibitory concentration(MIC), C. parapsitosis A. 7330 [11]: >100 µg/mL; Minimal inhibitory concentration(MIC), A. niger A. 16404 [12]: >100 µg/mL; Minimal inhibitory concentration(MIC), C. tropicalis A. 13803 [13]: >100 µg/mL
Cc1cc(C)cc(C(=C(F)OCC2COC(Cn3ccnc3)(c3ccc(Cl)cc3Cl)O2)C(F)(F)F)c1 (stereo not drawn) [Ex. 24]						6.25 (≈ 11.5 µM)	>100	0.78 (≈ 1.43 µM)	50.0 (≈ 91.7 µM)	12.5 (≈ 22.9 µM)	6.25 (≈ 11.5 µM)	12.5 (≈ 22.9 µM)	6.25 (≈ 11.5 µM)	1.56 (≈ 2.86 µM)	100 (≈ 183 µM)	0.78 (≈ 1.43 µM)	0.39 µg/mL (≈ 0.715 µM)	>100	100 (≈ 183 µM)	25.0 (≈ 45.8 µM)	
FC(Oc1ccc(OCC2COC(Cn3ccnc3)(c3ccc(F)cc3F)O2)cc1)=C(c1ccc(Oc2ccccc2)cc1)C(F)(F)F (mixture of isomers) [Ex. 113]	>100	1.56	>100	25.0	>100																Minimal inhibitory concentration(MIC), C. albicans A. 10231 [1]: >100 µg/mL; Minimal inhibitory concentration(MIC), C. albicans C1-2 (Candida albicans C1-2): >100 µg/mL; Minimal inhibitory concentration(MIC), T. mentagrophytes B. 32663 [6]: 12.5 µg/mL; Minimal inhibitory concentration(MIC), Cry. neoformans B. 42419 [7]: 3.13 µg/mL; Minimal inhibitory concentration(MIC), C. pseudotropicalis K. 11658 [8]: 100 µg/mL; Minimal inhibitory concentration(MIC), C. albicans IFO. 1385 [9]: 3.13 µg/mL; Minimal inhibitory concentration(MIC), Cry. neoformans IFM. 40092 [10]: 0.39 µg/mL; Minimal inhibitory concentration(MIC), C. parapsitosis A. 7330 [11]: >100 µg/mL; Minimal inhibitory concentration(MIC), A. niger A. 16404 [12]: >100 µg/mL; Minimal inhibitory concentration(MIC), C. tropicalis A. 13803 [13]: >100 µg/mL
CCc1ccc(C(=C(F)OCC2COC(Cn3ccnc3)(c3ccc(F)cc3F)O2)C(F)(F)F)cc1 (mixture of isomers) [Ex. 55]						12.5	>100	0.78	100	6.25	12.5	6.25	3.13	0.78	50.0	0.78	≦0.10 μg/ml	>100	>100	25.0	
COc1ccc(C=C(F)OCC2COC(Cn3cncn3)(c3ccc(Cl)cc3Cl)O2)cc1 (mixture of isomers) [Ex. 74]	100	6.25	>100	12.5	50.0	100					100										Minimal inhibitory concentration(MIC), T. mentagrophytes B. 32663 [6]: 12.5 µg/mL; Minimal inhibitory concentration(MIC), Cry. neoformans B. 42419 [7]: 3.13 µg/mL; Minimal inhibitory concentration(MIC), C. pseudotropicalis K. 11658 [8]: 25.0 µg/mL; Minimal inhibitory concentration(MIC), C. albicans IFO. 1385 [9]: 12.5 µg/mL; Minimal inhibitory concentration(MIC), Cry. neoformans IFM. 40092 [10]: 0.78 µg/mL; Minimal inhibitory concentration(MIC), C. parapsitosis A. 7330 [11]: >100 µg/mL; Minimal inhibitory concentration(MIC), A. niger A. 16404 [12]: >100 µg/mL; Minimal inhibitory concentration(MIC), C. tropicalis A. 13803 [13]: >100 µg/mL
Cc1cc(C)c(C=C(F)OCC2COC(Cn3ccnc3)(c3ccc(Cl)cc3Cl)O2)cc1C (stereo not drawn) [Ex. 7]						12.5 (≈ 25.4 µM)	12.5 (≈ 25.4 µM)	1.56 (≈ 3.17 µM)	6.25 (≈ 12.7 µM)	6.25 (≈ 12.7 µM)	12.5 (≈ 25.4 µM)	6.25 (≈ 12.7 µM)	1.56 (≈ 3.17 µM)	1.56 (≈ 3.17 µM)	12.5 (≈ 25.4 µM)	1.56 (≈ 3.17 µM)	0.78 µg/mL (≈ 1.59 µM)	12.5 (≈ 25.4 µM)	12.5 (≈ 25.4 µM)	25.0 (≈ 50.9 µM)	
FC(OCC1COC(Cn2ccnc2)(c2ccc(Cl)cc2Cl)O1)=C(c1ccc(F)cc1)C(F)(F)F (mixture of isomers) [Ex. 33]						6.25	100	1.56	100	25.0	12.5	25.0	12.5	1.56	100	1.56	0.78 µg/mL	>100	100	50.0	
FC(OCC1COC(Cn2ccnc2)(c2ccc(Cl)cc2Cl)O1)=C(c1ccc2c(c1)OCO2)C(F)(F)F (stereo not drawn) [Ex. 28]						25.0 (≈ 44.5 µM)	>100	1.56 (≈ 2.78 µM)	100 (≈ 178 µM)	25.0 (≈ 44.5 µM)	25.0 (≈ 44.5 µM)	25.0 (≈ 44.5 µM)	6.25 (≈ 11.1 µM)	1.56 (≈ 2.78 µM)	100 (≈ 178 µM)	1.56 (≈ 2.78 µM)	0.78 µg/mL (≈ 1.39 µM)	100 (≈ 178 µM)	100 (≈ 178 µM)	100 (≈ 178 µM)	
Cc1ccc(C(=C(F)OCC2COC(Cn3ccnc3)(c3ccc(F)cc3F)O2)C(F)(F)F)cc1C (mixture of isomers) [Ex. 56]						12.5	>100	1.56	50.0	6.25	12.5	6.25	3.13	0.78	>100	0.78	0.20 µg/mL	>100	>100	100	
